Where two headings read alike, the source gives them in different places.

For the experiment, the target named is T1, alkaline protease (crystalline enzyme of the present invention) from Bacillus sp. No. 221 (ATCC 21522), Bacillus sp. No. 0-4 (ATCC 21536) or Bacillus sp. No. Y- (Shouchella clausii, UniProt P41362).
T1 construct: made in house; host or cells: culture of the wild Bacillus strain (No. 221, No. 0-4 or No. Y-76); native enzyme isolated from the culture
T1 sequence (P41362 112-380): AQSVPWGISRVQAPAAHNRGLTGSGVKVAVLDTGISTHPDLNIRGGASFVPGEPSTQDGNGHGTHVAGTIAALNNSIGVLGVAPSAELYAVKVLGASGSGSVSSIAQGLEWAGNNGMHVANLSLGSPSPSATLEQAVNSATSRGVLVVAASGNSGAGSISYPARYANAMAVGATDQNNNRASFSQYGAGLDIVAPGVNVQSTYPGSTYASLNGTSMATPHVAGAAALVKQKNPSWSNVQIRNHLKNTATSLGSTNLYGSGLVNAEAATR
Type of experiment: biochemical, No. Y-76. As to the method:
One milliliter of the enzyme solution suitably diluted with 10^-2 M CaCl2 was mixed with 5 ml of 0.6% casein solution (pH 11.5, 2 × 10^-2 M Na2 HPO4 - NaOH buffer) at 30° C. After 10 minutes' incubation, 5 ml of trichloroacetic acid solution (0.11M trichloroacetic acid, 0.22M sodium acetate, and 0.33M acetic acid) was added to the reaction mixture and the mixture was further incubated at 30° C for 30 minutes. The mixture was filtered and the absorbance of the filtrate was measured at 275 mμ. The readings were corrected by substracting the value of the blank in which the enxyme solution was mixed with trichloroacetic acid solution before the casein solution was added.
One unit of protease activity is defined as the amount of enzyme required to produce the digest which is not precipitated by trichloroacetic acid and which gives absorbance value equivalent to 1 γ of tyrosine per minute at 30° C. The relative activity is the activity at any pH divided by the maximum activity and multiplied by 100. FIG. 4 of this application gives the data of the absolute activity (arbitrary scale) on the ordinate and the pH's on the axis of the abscissa.

`O=C(O)CN(CCN(CC(=O)O)CC(=O)O)CC(=O)O` [EDTA, ethylenediaminetetraacetic acid] came in with a Residual activity of 100%.

For `O=C(O)c1cc[c]([Hg][Cl])cc1` [PCMB, p-chloromercuribenzoate], the Residual activity (additive concentration 10^-3 M) stood at 100%.

Under “additive concentration 6 M”, `NC(N)=O` [Urea] yielded a Residual activity of 0%.

The values are drawn from US4052262A (priority 1969, dated 1977).
